Experimental data as given in article PMC6450877, “A revised biosynthetic pathway for the cofactor F420 in prokaryotes” (Nature Communications, 2019).

How the values were obtained:
Mtb-FbiD [1] = molecular target: T1, Mtb-FbiD (Mycobacterium tuberculosis, UniProt P9WP83)
Mtb-FbiA [2] = molecular target: T2, Mtb-FbiA (Mycobacterium tuberculosis, UniProt P9WP81)
Mtb-FbiA [3] = molecular target: T2, Mtb-FbiA; remark: listed apart in the source
Mtb-FbiB [4] = molecular target: T3, Mtb-FbiB (Mycobacterium tuberculosis, UniProt P9WP79)
Mtb-FbiB [5] = molecular target: T3, Mtb-FbiB; remark: listed apart in the source
Mtb-FbiD [6] = molecular target: T1, Mtb-FbiD; remark: listed apart in the source
Mj-CofC = molecular target: T4, Mj-CofC (Methanocaldococcus jannaschii, UniProt Q58297); assay: coupled HPLC-MS assay with Mtb-FbiA; type: biochemical; details: Mtb-FbiA present, 1 mM PEP, 2 mM GTP, 0.1 mM Fo, 5 mM MgCl2, pH 7.5, 37 °C
T4 construct: synthetic ORF in pYUB28b, expressed in E. coli, Ni-NTA and SEC
T4 sequence (Q58297 1-224): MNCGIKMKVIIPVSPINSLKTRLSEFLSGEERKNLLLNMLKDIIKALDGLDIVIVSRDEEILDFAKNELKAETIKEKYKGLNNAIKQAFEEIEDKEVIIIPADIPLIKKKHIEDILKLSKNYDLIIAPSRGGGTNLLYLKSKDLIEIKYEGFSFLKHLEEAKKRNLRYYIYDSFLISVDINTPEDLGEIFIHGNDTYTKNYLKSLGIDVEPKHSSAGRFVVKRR

T1 sequence (P9WP83 whole entry): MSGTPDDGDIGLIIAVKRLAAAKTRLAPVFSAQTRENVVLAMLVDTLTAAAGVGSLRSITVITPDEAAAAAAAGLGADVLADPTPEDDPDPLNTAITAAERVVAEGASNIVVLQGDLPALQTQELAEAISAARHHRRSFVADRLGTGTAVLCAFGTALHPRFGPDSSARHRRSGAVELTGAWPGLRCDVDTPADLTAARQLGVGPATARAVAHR
T3 sequence (P9WP79 whole entry): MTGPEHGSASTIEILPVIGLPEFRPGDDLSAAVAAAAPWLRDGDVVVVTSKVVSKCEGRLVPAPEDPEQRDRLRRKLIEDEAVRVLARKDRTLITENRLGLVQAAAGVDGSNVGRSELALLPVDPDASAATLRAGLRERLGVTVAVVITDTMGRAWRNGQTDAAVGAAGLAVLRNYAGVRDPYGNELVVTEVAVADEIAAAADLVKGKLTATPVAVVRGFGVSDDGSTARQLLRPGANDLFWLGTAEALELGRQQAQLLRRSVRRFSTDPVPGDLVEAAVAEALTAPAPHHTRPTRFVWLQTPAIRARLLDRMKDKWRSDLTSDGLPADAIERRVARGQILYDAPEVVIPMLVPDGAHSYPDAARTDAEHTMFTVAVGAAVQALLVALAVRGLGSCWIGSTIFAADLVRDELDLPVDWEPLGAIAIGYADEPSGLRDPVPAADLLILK
T2 sequence (P9WP81 whole entry): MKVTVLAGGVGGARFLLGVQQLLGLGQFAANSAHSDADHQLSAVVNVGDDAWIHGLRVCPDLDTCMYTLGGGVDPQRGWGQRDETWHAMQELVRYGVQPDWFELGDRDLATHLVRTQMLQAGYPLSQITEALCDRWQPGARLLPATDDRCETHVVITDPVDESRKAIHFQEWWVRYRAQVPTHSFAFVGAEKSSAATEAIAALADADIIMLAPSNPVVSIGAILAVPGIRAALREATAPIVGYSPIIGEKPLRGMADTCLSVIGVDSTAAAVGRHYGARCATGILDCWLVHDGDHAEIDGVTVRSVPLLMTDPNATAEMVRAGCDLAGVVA

Structure (SMILES): Nc1nc2c(ncn2[C@@H]2O[C@H](COP(=O)(O)OP(=O)(O)OP(=O)(O)O)[C@@H](O)[C@H]2O)c(=O)[nH]1 [GTP, guanosine-5ʹ-triphosphate]
- coupled HPLC-MS assay with FbiA (Mtb-FbiD [1]): Mtb-FbiD exclusively utilizes GTP to produce dehydro-F420-0

Structure (SMILES): O=c1nc2n(C[C@H](O)[C@H](O)[C@H](O)CO)c3cc(O)ccc3cc-2c(=O)[nH]1 [Fo, 7,8-didemethyl-8-hydroxy-5-deazariboflavin]
- coupled HPLC-MS assay with FbiD or CofC (Mtb-FbiA [2]): when these enzymes were incubated with PEP, GTP (or ATP), and Fo

Structure (SMILES): C=C(OP(=O)(O)OC[C@@H](O)[C@@H](O)[C@@H](O)Cn1c2nc(=O)[nH]c(=O)c-2cc2ccc(O)cc21)C(=O)O [dehydro-F420-0]
- coupled HPLC assay, MS/MS (Mtb-FbiA [3]): The discovery of dehydro-F420-0 as the product of FbiD:FbiA activity in mycobacteria
- coupled FbiD:FbiA:FbiB assay with Fre/FMNH2, MS/MS (Mtb-FbiB [4]): dehydro-F420-0 is a bona fide metabolic intermediate that can be converted to mature F420 by FbiB

Structure (SMILES): N[C@@H](CCC(=O)O)C(=O)O [L-glutamate]
- coupled FbiD:FbiA:FbiB assay, LC-MS (Mtb-FbiB [5]): Mtb-FbiB was observed to catalyze the addition of L-glutamate residues to dehydro-F420-0

Structure (SMILES): C=C(OP(=O)(O)O)C(=O)O [PEP, phosphoenolpyruvate]
- X-ray crystal structure, soak, 2.18 Å (Mtb-FbiD [6]): We also soaked PEP into pre-formed FbiD crystals to obtain an FbiD-PEP complex
- coupled HPLC-MS assay with Mtb-FbiA (Mj-CofC): both Mtb-FbiD and CofC from Methanocaldococcus jannaschii (Mj-CofC) enzymes use PEP to produce dehydro-F420-0
